The source of these data is patent US8148373B2, “Compounds” (AstraZeneca AB, priority 2008, dated 2012).

The target of experiment [1] is T1, Adrenergic β2 (H292 cells) (Homo sapiens, UniProt P07550).
T1 construct: endogenous in cells; host or cells: H292 cells
Kind of experiment: Adrenergic β2 Mediated cAMP Production, single concentration 1 μM. In kind it is cell-based. As to conditions: percentage of the maximum response generated by 1E-07M formoterol; for activation at 1 µM: NCI-H292, 1 μM compound, read-out: β2 (% effect at 1 μM); for β2 (% effect at 1 μM): 1 μM compound. The method in brief: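 H292 cells were plated overnight, pre-treated with 300 μM rolipram for 10 min, then exposed to compound at 1 μM final (1% DMSO) for 60 min at room temperature. cAMP in the lysates was measured by AlphaScreen against a standard curve and expressed as % of the maximal response to 1E-07M formoterol.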

Experiment [2] has as its target T2, human muscarinic acetylcholine M3 receptor (M3-ACh) (Homo sapiens, UniProt P20309).
T2 construct: expressed in transfected cells; host or cells: CHO-K1 (Chinese Hamster Ovary) cell membranes
Kind of experiment: Muscarinic 3 Receptor Binding Assay, % inhibition specific binding at 1 μM. Conditions: 1 μM compound, % inhibition specific [3H]-NMS binding. The method, boiled down: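 Competition binding of 0.1 nM [3H]NMS to membranes from CHO-K1 cells expressing human M3, SPA format, with compound at 1 μM in 20 mM HEPES pH 7.4, 5 mM MgCl2, 1% DMSO. Incubated 16 h at room temperature; non-specific binding defined by 1 μM atropine; value is % inhibition of specific binding.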

T1 sequence (P07550 whole entry): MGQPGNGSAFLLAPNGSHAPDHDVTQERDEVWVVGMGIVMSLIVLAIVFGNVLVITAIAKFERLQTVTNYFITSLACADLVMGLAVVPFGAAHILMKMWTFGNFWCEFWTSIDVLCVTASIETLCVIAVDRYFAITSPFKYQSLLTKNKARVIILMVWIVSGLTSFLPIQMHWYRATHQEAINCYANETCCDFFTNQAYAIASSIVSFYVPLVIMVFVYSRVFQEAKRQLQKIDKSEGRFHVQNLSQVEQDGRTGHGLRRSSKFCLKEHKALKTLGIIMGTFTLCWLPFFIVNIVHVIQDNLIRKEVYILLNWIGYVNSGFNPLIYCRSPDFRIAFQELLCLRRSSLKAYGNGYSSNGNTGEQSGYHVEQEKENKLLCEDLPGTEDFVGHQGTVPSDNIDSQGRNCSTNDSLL
T2 sequence (P20309 whole entry): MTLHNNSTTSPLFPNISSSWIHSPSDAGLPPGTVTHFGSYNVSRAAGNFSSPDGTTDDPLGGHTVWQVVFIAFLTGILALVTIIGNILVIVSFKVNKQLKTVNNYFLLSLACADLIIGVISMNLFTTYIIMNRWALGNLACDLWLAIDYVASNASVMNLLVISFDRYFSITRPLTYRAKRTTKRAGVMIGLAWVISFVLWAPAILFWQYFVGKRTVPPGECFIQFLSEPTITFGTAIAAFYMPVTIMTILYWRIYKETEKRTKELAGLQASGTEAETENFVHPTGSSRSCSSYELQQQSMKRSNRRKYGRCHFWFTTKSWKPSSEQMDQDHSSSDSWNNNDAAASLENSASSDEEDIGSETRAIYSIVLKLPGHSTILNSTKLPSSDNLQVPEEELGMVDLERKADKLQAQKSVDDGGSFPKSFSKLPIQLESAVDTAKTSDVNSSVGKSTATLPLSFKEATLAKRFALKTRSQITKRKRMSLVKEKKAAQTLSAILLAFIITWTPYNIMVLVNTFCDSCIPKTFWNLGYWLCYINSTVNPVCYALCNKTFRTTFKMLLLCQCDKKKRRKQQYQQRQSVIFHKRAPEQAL

As to `O=C(Cn1ccc2cccc(Cl)c21)N1CCOC2(CCN(Cc3cc(F)cc(CCNC[C@H](O)c4ccc(O)c5[nH]c(=O)sc45)c3)CC2)C1` [Example 168, (R)-7-(2-(3-((4-(2-(7-chloro-1H-indol-1-yl)acetyl)-1-oxa-4,9-diazaspiro[5.5]undecan-9-yl)methyl)-5-fluorophenethylamino)-1-hydroxyethyl)-4-hydroxybenzo[d]thiazol-2(3H)-one], in experiment [1], the activation at 1 µM was determined as 95%. In experiment [2], at 1 µM the inhibition was 29%.

As to `CC(C)(C(=O)N1CCOC2(CCN(CCOc3ccc(CNC[C@H](O)c4ccc(O)c5[nH]c(=O)sc45)cc3)CC2)C1)c1ccccc1` [Example 230, (R)-4-hydroxy-7-(1-hydroxy-2-(4-(2-(4-(2-methyl-2-phenylpropanoyl)-1-oxa-4,9-diazaspiro[5.5]undecan-9-yl)ethoxy)benzylamino)ethyl) benzo[d]thiazol-2(3H)-one], in experiment [1], the activation at 1 µM amounted to 70%. Besides, the inhibition at 1 µM in experiment [2] is 31%.

As to `O=C(c1ccc(Cl)s1)N1CCOC2(CCN(CCOc3ccc(CNC[C@H](O)c4ccc(O)c5[nH]c(=O)sc45)cc3)CC2)C1` [Example 231, (R)-7-(2-(4-(2-(4-(5-chlorothiophene-2-carbonyl)-1-oxa-4,9-diazaspiro[5.5]undecan-9-yl)ethoxy)benzylamino)-1-hydroxyethyl)-4-hydroxybenzo[d] thiazol-2(3H)-one], in experiment [1], the activation at 1 µM is 53%. In experiment [2], this compound gave an inhibition at 1 µM of 91%.

Consider `O=C(c1ccccc1)N1CCOC2(CCN(CCOc3ccc(CNC[C@H](O)c4ccc(O)c5[nH]c(=O)sc45)cc3)CC2)C1` [Example 223, (R)-7-(2-(4-(2-(4-benzoyl-1-oxa-4,9-diazaspiro[5.5]undecan-9-yl)ethoxy)benzylamino)-1-hydroxyethyl)-4-hydroxybenzo[d]thiazol-2(3H)-one], for which the activation at 1 µM in experiment [1] was 87%. The compound further showed an inhibition at 1 µM in experiment [2] of 56%.

Consider `Cc1cc(C(=O)N2CCOC3(CCN(CCCCCCCCCNC[C@H](O)c4ccc(O)c5[nH]c(=O)sc45)CC3)C2)oc1C` [Example 195, (R)-7-(2-(9-(4-(4,5-dimethylfuran-2-carbonyl)-1-oxa-4,9-diazaspiro[5.5]undecan-9-yl)nonylamino)-1-hydroxyethyl)-4-hydroxybenzo[d]thiazol-2(3H)-one], for which the activation at 1 µM in experiment [1] is 86%. Also, the inhibition at 1 µM in experiment [2] is 88%.

`Cc1sccc1C(=O)N1CCOC2(CCN(CCOc3ccc(CNC[C@H](O)c4ccc(O)c5[nH]c(=O)sc45)cc3)CC2)C1` [Example 246, (R)-4-hydroxy-7-(1-hydroxy-2-(4-(2-(4-(2-methylthiophene-3-carbonyl)-1-oxa-4,9-diazaspiro[5.5]undecan-9-yl)ethoxy)benzylamino)ethyl) benzo[d]thiazol-2(3H)-one]: the activation at 1 µM in experiment [1] turned out to be 72%. Moreover, 1 µM produced 38% inhibition in experiment [2].

`O=C(COc1ccc(O)cc1)N1CCOC2(CCN(Cc3cc(F)cc(CCNC[C@H](O)c4ccc(O)c5[nH]c(=O)sc45)c3)CC2)C1` [Example 181, (R)-7-(2-(3-fluoro-5-((4-(2-(4-hydroxyphenoxy)acetyl)-1-oxa-4,9-diazaspiro[5.5]undecan-9-yl)methyl)phenethylamino)-1-hydroxyethyl)-4-hydroxybenzol[d]thiazol-2(3H)-one]: the “β2 (% effect at 1 μM)” value in experiment [1] is given as 86%. In addition, the “M3 (% inhibition at 1 μM)” value in experiment [2] is 10%.

With `Cc1occc1C(=O)N1CCOC2(CCN(CCCCCCCCCNC[C@H](O)c3ccc(O)c4[nH]c(=O)sc34)CC2)C1` [Example 197, (R)-4-hydroxy-7-(1-hydroxy-2-(9-(4-(2-methylfuran-3-carbonyl)-1-oxa-4,9-diazaspiro[5.5]undecan-9-yl)nonylamino)ethyl)benzo[d]thiazol-2(3H)-one], the activation at 1 µM in experiment [1] is 78%. For the same compound, the inhibition at 1 µM in experiment [2] stood at 97%.

Take `O=C(CCn1cncn1)N1CCOC2(CCN(Cc3cc(F)cc(CCNC[C@H](O)c4ccc(O)c5[nH]c(=O)sc45)c3)CC2)C1` [Example 164, (R)-7-(2-(3-((4-(3-(1H-1,2,4-triazol-1-yl)propanoyl)-1-oxa-4,9-diazaspiro[5.5]undecan-9-yl)methyl)-5-fluorophenethylamino)-1-hydroxyethyl)-4-hydroxybenzo[d]thiazol-2(3H)-one]: the activation at 1 µM in experiment [1] worked out at 99%. The compound further displayed an inhibition at 1 µM in experiment [2] of 35%.

In the case of `O=C(c1ccc(-c2ccccc2)cc1)N1CCOC2(CCN(Cc3cc(F)cc(CCNC[C@H](O)c4ccc(O)c5[nH]c(=O)sc45)c3)CC2)C1` [Example 145, (R)-7-(2-(3-((4-(biphenylcarbonyl)-1-oxa-4,9-diazaspiro[5.5]undecan-9-yl)methyl)-5-fluorophenethylamino)-1-hydroxyethyl)-4-hydroxybenzo[d]thiazol-2(3H)-one], the “β2 (% effect at 1 μM)” value in experiment [1] is on record as 53%. For the same compound, the “M3 (% inhibition at 1 μM)” value in experiment [2] (1 µM) stood at 7%.

For the compound `O=C(COc1ccccc1)N1CCOC2(CCN(CCCCCCCCCNC[C@H](O)c3ccc(O)c4[nH]c(=O)sc34)CC2)C1` [Example 199, (R)-4-hydroxy-7-(1-hydroxy-2-(9-(4-(2-phenoxyacetyl)-1-oxa-4,9-diazaspiro[5.5]undecan-9-yl)nonylamino)ethyl)benzo[d]thiazol-2(3H)-one], in experiment [1], the activation at 1 µM came to 91%. For the same compound, in experiment [2], the inhibition at 1 µM came out at 91%.

Consider `Cc1nonc1C(=O)N1CCOC2(CCN(Cc3cc(F)cc(CCNC[C@H](O)c4ccc(O)c5[nH]c(=O)sc45)c3)CC2)C1` [Example 151, (R)-7-(2-(3-fluoro-5-((4-(4-methyl-1,2,5-oxadiazole-3-carbonyl)-1-oxa-4,9-diazaspiro[5.5]undecan-9-yl)methyl)phenethylamino)-1-hydroxyethyl)-4-hydroxybenzo[d]thiazol-2(3H)-one], for which the activation at 1 µM in experiment [1] amounted to 98%. Besides, in experiment [2], the inhibition at 1 µM is 71%.

`Cc1cc(CC(=O)N2CCOC3(CCN(CCOc4ccc(CNC[C@H](O)c5ccc(O)c6[nH]c(=O)sc56)cc4)CC3)C2)on1` [Example 249, (R)-4-hydroxy-7-(1-hydroxy-2-(4-(2-(4-(2-(3-methylisoxazol-5-yl)acetyl)-1-oxa-4,9-diazaspiro[5.5]undecan-9-yl)ethoxy)benzylamino)ethyl) benzo[d]thiazol-2(3H)-one]: the activation at 1 µM in experiment [1] is 76%. Also, in experiment [2], the inhibition at 1 µM came out at 31%.

On to `Cc1ccnn1CC(=O)N1CCOC2(CCN(CCOc3ccc(CNC[C@H](O)c4ccc(O)c5[nH]c(=O)sc45)cc3)CC2)C1` [Example 241, (R)-4-hydroxy-7-(1-hydroxy-2-(4-(2-(4-(2-(5-methyl-1H-pyrazol-1-yl)acetyl)-1-oxa-4,9-diazaspiro[5.5]undecan-9-yl)ethoxy)benzylamino)ethyl) benzo[d]thiazol-2(3H)-one], for which the activation at 1 µM in experiment [1] is 85%. The compound also had an inhibition at 1 µM in experiment [2] of 11%.

On to `Cn1cccc1C(=O)N1CCOC2(CCN(CCCCCCCCCNC[C@H](O)c3ccc(O)c4[nH]c(=O)sc34)CC2)C1` [Example 184, (R)-4-hydroxy-7-(1-hydroxy-2-(9-(4-(1-methyl-1H-pyrrole-2-carbonyl)-1-oxa-4,9-diazaspiro[5.5]undecan-9-yl)nonylamino)ethyl)benzo[d]thiazol-2(3H)-one], for which the activation at 1 µM in experiment [1] was 89%. The inhibition at 1 µM in experiment [2] was determined as 96%.

Consider `Cc1nc(C)c(CC(=O)N2CCOC3(CCN(CCOc4ccc(CNC[C@H](O)c5ccc(O)c6[nH]c(=O)sc56)cc4)CC3)C2)s1` [Example 252, (R)-7-(2-(4-(2-(4-(2-(2,4-dimethylthiazol-5-yl)acetyl)-1-oxa-4,9-diazaspiro[5.5]undecan-9-yl)ethoxy)benzylamino)-1-hydroxyethyl)-4-hydroxy-benzo[d]thiazol-2(3H)-one], for which the activation at 1 µM in experiment [1] was 88%. Also, the inhibition at 1 µM in experiment [2] amounted to 10%.

Regarding `O=C(COc1ccccc1)N1CCOC2(CCN(CCOc3ccc(CNC[C@H](O)c4ccc(O)c5[nH]c(=O)sc45)cc3)CC2)C1` [Example 240, (R)-4-hydroxy-7-(1-hydroxy-2-(4-(2-(4-(2-phenoxyacetyl)-1-oxa-4,9-diazaspiro[5.5]undecan-9-yl)ethoxy)benzylamino)ethyl) benzo[d]thiazol-2(3H)-one], the activation at 1 µM in experiment [1] was 92%. For the same compound, in experiment [2], the inhibition at 1 µM was found to be 34%.

Regarding `O=C(CCCc1ccccc1)N1CCOC2(CCN(CCOc3ccc(CNC[C@H](O)c4ccc(O)c5[nH]c(=O)sc45)cc3)CC2)C1` [Example 229, (R)-4-hydroxy-7-(1-hydroxy-2-(4-(2-(4-(4-phenylbutanoyl)-1-oxa-4,9-diazaspiro[5.5]undecan-9-yl)ethoxy)benzylamino)ethyl) benzo[d]thiazol-2(3H)-one], in experiment [1], the activation at 1 µM stood at 83%. Further, in experiment [2], the inhibition at 1 µM is 67%.

With `CCn1c(=O)n(CC(=O)N2CCOC3(CCN(Cc4cc(F)cc(CCNC[C@H](O)c5ccc(O)c6[nH]c(=O)sc56)c4)CC3)C2)c2ccccc21` [Example 135, (R)-7-(2-(3-((4-(2-(3-ethyl-2-oxo-2,3-dihydro-1H-benzo[d]imidazol-1-yl)acetyl)-1-oxa-4,9-diazaspiro[5.5]undecan-9-yl)methyl)-5-fluorophenethylamino)-1-hydroxyethyl)-4-hydroxybenzo[d]thiazol-2(3H)-one], the activation at 1 µM in experiment [1] amounted to 106%. The same compound showed an inhibition at 1 µM in experiment [2] of 1%.
